Tested on: C8166 cells
Assay: Toxicity on C8166 cells (daily cell count, trypan-blue exclusion)
Type: cell-based
Settings: at doses up to 10 μM
Procedure: Samples of 3×10^5/100 μL C8166 cells were preincubated in 96-well microtiter plates in culture medium containing various concentrations of peptide. After a 1 h treatment at 37° C., 100 μl of diluted viral solution of HIV-1 was added. The cells were exposed to the virus for 1 h at 37° C. at a multiplicity of infection of 1000 TCID50 per ml. The cells were washed three times and cultured at 3×10^5/ml of R10 with the treatment in 24-well plates incubated at 37° C. C8166 culture medium was replaced at Day-4 post-infection. The treatment was permanent before virus adsorption, during virus adsorption and after infection. Assays on C8166 cells have been performed at least twice and in duplicate. Toxicity was evaluated by daily cell count and trypan-blue exclusion assay. Infection of C8166 T-cells with HIV-1 was assessed by virus-induced cytopathic effects (syncytia formation) and by quantification of cell free p24 viral protein in the culture supernatants. Measurements of HIV-1 p24^gag concentration in the culture supernatants were achieved by ELISA (ALLIANCE® HIV-1 p24 kit, Perkin Elmer, life sciences, USA).

| Structure (SMILES) | toxicity on cells |
| --- | --- |
| C[C@H](NC(=O)[C@H](CCCNC(=N)N)NC(=O)CNC(=O)[C@@H]1CCCN1C(=O)CN)C(=O)N[C@@H](Cc1ccccc1)C(=O)NCCCC[C@H](NC(=O)[C@H](Cc1ccccc1)NC(=O)[C@H](C)NC(=O)[C@H](CCCNC(=N)N)NC(=O)CNC(=O)[C@@H]1CCCN1C(=O)CN)C(=O)NCCCC[C@H](NC(=O)[C@H](CCCCNC(=O)[C@H](Cc1ccccc1)NC(=O)[C@H](C)NC(=O)[C@H](CCCNC(=N)N)NC(=O)CNC(=O)[C@@H]1CCCN1C(=O)CN)NC(=O)[C@H](Cc1ccccc1)NC(=O)[C@H](C)NC(=O)[C@H](CCCNC(=N)N)NC(=O)CNC(=O)[C@@H]1CCCN1C(=O)CN)C(=O)NCCCC[C@H](NC(=O)[C@H](CCCCNC(=O)[C@H](CCCCNC(=O)[C@H](Cc1ccccc1)NC(=O)[C@H](C)NC(=O)[C@H](CCCNC(=N)N)NC(=O)CNC(=O)[C@@H]1CCCN1C(=O)CN)NC(=O)[C@H](Cc1ccccc1)NC(=O)[C@H](C)NC(=O)[C@H](CCCNC(=N)N)NC(=O)CNC(=O)[C@@H]1CCCN1C(=O)CN)NC(=O)[C@H](CCCCNC(=O)[C@H](Cc1ccccc1)NC(=O)[C@H](C)NC(=O)[C@H](CCCNC(=N)N)NC(=O)CNC(=O)[C@@H]1CCCN1C(=O)CN)NC(=O)[C@H](Cc1ccccc1)NC(=O)[C@H](C)NC(=O)[C@H](CCCNC(=N)N)NC(=O)CNC(=O)[C@@H]1CCCN1C(=O)CN)C(=O)NCCCCC(=O)O [S5, SPC3-(δ-aminovaleric acid)] | no toxicity |
| C[C@H](NC(=O)[C@H](CCCNC(=N)N)NC(=O)CNC(=O)[C@@H]1CCCN1C(=O)CN)C(=O)N[C@@H](Cc1ccccc1)C(=O)NCCCC[C@H](NC(=O)[C@H](Cc1ccccc1)NC(=O)[C@H](C)NC(=O)[C@H](CCCNC(=N)N)NC(=O)CNC(=O)[C@@H]1CCCN1C(=O)CN)C(=O)NCCCC[C@H](NC(=O)[C@H](CCCCNC(=O)[C@H](Cc1ccccc1)NC(=O)[C@H](C)NC(=O)[C@H](CCCNC(=N)N)NC(=O)CNC(=O)[C@@H]1CCCN1C(=O)CN)NC(=O)[C@H](Cc1ccccc1)NC(=O)[C@H](C)NC(=O)[C@H](CCCNC(=N)N)NC(=O)CNC(=O)[C@@H]1CCCN1C(=O)CN)C(=O)NCCCC[C@H](NC(=O)[C@H](CCCCNC(=O)[C@H](CCCCNC(=O)[C@H](Cc1ccccc1)NC(=O)[C@H](C)NC(=O)[C@H](CCCNC(=N)N)NC(=O)CNC(=O)[C@@H]1CCCN1C(=O)CN)NC(=O)[C@H](Cc1ccccc1)NC(=O)[C@H](C)NC(=O)[C@H](CCCNC(=N)N)NC(=O)CNC(=O)[C@@H]1CCCN1C(=O)CN)NC(=O)[C@H](CCCCNC(=O)[C@H](Cc1ccccc1)NC(=O)[C@H](C)NC(=O)[C@H](CCCNC(=N)N)NC(=O)CNC(=O)[C@@H]1CCCN1C(=O)CN)NC(=O)[C@H](Cc1ccccc1)NC(=O)[C@H](C)NC(=O)[C@H](CCCNC(=N)N)NC(=O)CNC(=O)[C@@H]1CCCN1C(=O)CN)C(=O)NCCCC(=O)O [S6, SPC3-(γ-aminobutyric acid)] | no toxicity |
